This is an account of results in patent publication US9340517B2, “Methods of modulating the activity of the MC5 receptor and treatment of conditions related to this receptor” (Mimetica PTY LTD, priority 2008, dated 2016).

In one assay the target is human MC5R (Homo sapiens (Human), UniProt P33032). Briefly: Human MC5R radioligand binding assay ([125I] NDP-MSH displacement, membranes).
Chain of human MC5R (P33032 whole entry): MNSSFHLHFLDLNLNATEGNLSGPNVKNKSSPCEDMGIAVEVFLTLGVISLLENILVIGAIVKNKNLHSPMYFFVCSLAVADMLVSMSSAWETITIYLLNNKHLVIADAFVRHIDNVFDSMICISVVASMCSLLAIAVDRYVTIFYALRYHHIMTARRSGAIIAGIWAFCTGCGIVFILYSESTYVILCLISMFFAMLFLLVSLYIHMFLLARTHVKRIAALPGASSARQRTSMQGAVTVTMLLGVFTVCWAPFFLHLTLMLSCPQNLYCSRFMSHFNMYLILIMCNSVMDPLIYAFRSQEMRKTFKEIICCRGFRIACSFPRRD
Settings: not given
The method, then: Assessments of compound binding to human MC5R (hMC5R)) by displacement of an ^125I-labeled NDP-MSH receptor ligand peptide were performed essentially as described in the data sheets produced by Perkin Elmer to accompany their frozen hMC5R membranes (Perkin Elmer catalog number RBXMC5M400UA).
Na^125I (0.5 mCi, 17.4 Ci/mg) was added to 50 μL sodium phosphate (50 mM, pH 7.4) in an eppendorf tube precoated with IODOGEN. After incubation for 10 mins the phosphate buffer containing the iodine was added to NDP-MSH (10 ul at 1 mg/mL) in a separate eppendorf tube. This was incubated for a further 10 mins. The iodinated NDP-MSH was purified by HPLC on a Zorbax SB 300 column using solvent A: 0.05% TFA and solvent B: 90% acetonitrile 0.045% TFA with a linear gradient, 0-67% B over 60 mins.
Perkin Elmer frozen hMC5 membranes: catalog number RBXMC5M400UA, 0.4 mL/vial; 400 microassays/vial, 0.78 mg/mL protein concentration
Vials of frozen membranes were thawed rapidly immediately before use, diluted with binding buffer and vortexed. Resuspended membranes were kept on ice until they were added to the wells of the plate.
Assays were performed in 96 well polypropylene plates. […] This was incubated for 1 hr at 37° C.
As for `O=C(NCC1CCN(CC(c2ccccc2)c2ccccc2)C(=O)C(C2CCNCC2)N1)c1ccc2ccccc2c1` (racemic) [Compound 197, N-((1-(2,2-diphenylethyl)-2-oxo-3-(piperidin-4-yl)-1,4-diazepan-5-yl)methyl)-2-naphthamide], the IC50 is < 1000 nM.
On the same count and under the same terms, to `O=C(NCC1CCN(CC(c2ccccc2)c2ccccc2)C(=O)C(CC2CCNCC2)N1)c1ccc2ccccc2c1` (racemic) [Compound 198, N-((1-(2,2-diphenylethyl)-2-oxo-3-(piperidin-4-ylmethyl)-1,4-diazepan-5-yl)methyl)-2-naphthamide] belongs < 1000 nM; to `CC[C@H](CN1CC[C@@H](CNC(=O)Cc2ccc(Cl)cc2Cl)N[C@@H](CCN2CCCCC2)C1=O)c1ccccc1` [Compound 540, 2-(2,4-dichlorophenyl)-N-(((3S,5S)-2-oxo-1-((S)-2-phenylbutyl)-3-(2-(piperidin-1-yl)ethyl)-1,4-diazepan-5-yl)methyl)acetamide], < 1000 nM.
Same read-out and setting: in the case of `CC[C@H](CN1CC[C@@H](CNC(=O)c2ccc3cc(Cl)ccc3c2)N[C@H](CCN2CCCCC2)C1=O)c1ccccc1` [Compound 582, 6-chloro-N-(((3R,5S)-2-oxo-1-((S)-2-phenylbutyl)-3-(2-(piperidin-1-yl)ethyl)-1,4-diazepan-5-yl)methyl)-2-naphthamide] it was < 100 nM.
On the same count and under the same terms, in the case of `CC[C@@H](CN1CC[C@@H](CNC(=O)c2ccc3cc(Cl)ccc3c2)N[C@H](CCN2CCCCC2)C1=O)c1ccccc1` [Compound 584, 6-chloro-N-(((3R,5S)-2-oxo-1-((R)-2-phenylbutyl)-3-(2-(piperidin-1-yl)ethyl)-1,4-diazepan-5-yl)methyl)-2-naphthamide] it was < 1000 nM.

The same assay, now with this note: hMC5R binding assay as in Example 102; compounds tested as trifluoroacetate or hydrochloride salts, or as free base.
Consider `N=C(N)NCCC[C@@H]1N[C@H](CNC(=O)/C=C/c2ccccc2)CCN(CC(c2ccccc2)c2ccccc2)C1=O` [Compound 153, N-(((3S,5S)-1-(2,2-diphenylethyl)-3-(3-guanidinopropyl)-2-oxo-1,4-diazepan-5-yl)methyl)cinnamamide], for which the IC50 was < 100 nM.
On the same count and under the same terms, in the case of `NCCC[C@@H]1N[C@H](CNC(=O)/C=C/c2ccccc2)CCN(CC(c2ccccc2)c2ccccc2)C1=O` [Compound 213, N-(((3S,5S)-3-(3-aminopropyl)-1-(2,2-diphenylethyl)-2-oxo-1,4-diazepan-5-yl)methyl)cinnamamide] it was < 1000 nM; in that of `O=C(/C=C/c1ccccc1)NC[C@@H]1CCN(CC(c2ccccc2)c2ccccc2)C(=O)[C@H](CCCN2CCCCC2)N1` [Compound 269, N-(((3S,5S)-1-(2,2-diphenylethyl)-2-oxo-3-(3-(piperidin-1-yl)propyl)-1,4-diazepan-5-yl)methyl)cinnamamide], < 100 nM; in that of `NCC[C@@H]1N[C@H](CNC(=O)/C=C/c2ccccc2)CCN(CC(c2ccccc2)c2ccccc2)C1=O` [Compound 282, N-(((3S,5S)-3-(2-aminoethyl)-1-(2,2-diphenylethyl)-2-oxo-1,4-diazepan-5-yl)methyl)cinnamamide], < 1000 nM.
With `Nc1ccccc1C[C@H]1C(=O)N(CC(c2ccccc2)c2ccccc2)CC[C@H]2CN(C(=O)/C=C/c3ccc(Cl)cc3)CN21` [Compound 453, (5S,9aS)-5-((2-aminobenzyl)-2-(E)-3-(4-chlorophenyl)acryloyl)-7-(2,2-diphenylethyl)hexahydro-1H-imidazo[1,5-d][1,4]diazepin-6(5H)-one], the IC50 was < 1000 nM.

The assay is the same for the next values; noted with them: hMC5R binding assay as in Example 102; compounds tested as trifluoroacetate or hydrochloride salts, or free base.
Regarding `O=C(NC[C@@H]1CCN(Cc2cc(Cl)cc(Cl)c2)C(=O)[C@H](CCN2CCOCC2)N1)c1ccc2cc(Cl)ccc2c1` [Compound 555], the IC50 was < 100 nM.
On the same count and under the same terms, to `O=C(NC[C@@H]1CCN(Cc2cc(Cl)cc(Cl)c2)C(=O)[C@H](CCN2CCOCC2)N1)c1ccc(Cl)c(Cl)c1` [Compound 556] belongs < 100 nM.
The same measure, in the same setting: to `COc1ccc2cc(C(=O)NC[C@@H]3CCN(Cc4cc(Cl)cc(Cl)c4)C(=O)[C@H](CCN4CCCCC4)N3)ccc2c1` [Compound 568] belongs < 100 nM.

System in a further assay: not given
Experiment: not given
To be noted: oral, after 8-12 weeks of therapy; cited from earlier work.
With `CC1=C(/C=C/C(C)=C/C=C/C(C)=C\C(=O)O)C(C)(C)CCC1` [isotretinoin, 13-cis-retinoic acid], the “reduction of sebum excretion” value is reported as “up to 90%”.

Still in this assay, the particulars now being: oral, by 2 weeks; cited from earlier work.
For the molecule `CC1=C(/C=C/C(C)=C/C=C/C(C)=C\C(=O)O)C(C)(C)CCC1` [isotretinoin, 13-cis-retinoic acid], the “reduction of sebum excretion” value was 60-70%.
